Laboratory results published in patent US6544789B1, “Phosphorus-controllable recombinant expression of polypeptides in plants” (Board of Trustees, Rutgers, The State University of New …, priority 2000, dated 2003).

What was measured:
[1] = test system: APase promoter; test: GUS expression in Pr-GUS transformants grown in sand culture (specificity of APase promoter induction); type: in vivo, Arabidopsis thaliana; set-up: key to relative GUS expression: “−” (lowest); “+/−,”; “+,”; “++,”; “+++” (highest); conditions: for relative GUS expression: 100 μM, 14-day-old seedlings
Description: A screening method was developed to evaluate GUS expression levels in the various transformed lines: T2 seedlings were germinated in pots containing fine granules of washed sand (40-100 mesh Fisher Scientific, Pittsburgh, Pa.). To remove trace amounts of contaminating elements, the sand was previously washed by soaking it in 0.1 M HCl for 45 minutes and then washing it extensively with ddH2O until the sand mixture reached pH 6.5. Seedlings were grown in standard phosphorus medium for 14 days before transfer to phosphorus-deficient medium. GUS expression in plants subjected to phosphorus-deficient conditions for 14 days is shown in FIGS. 4A-4D (FIG. 4A—lateral root primordium with localized GUS expression, FIG. 4B—GUS expression in several cell layers of lateral root primordium; FIG. 4C—emerging lateral root meristem; FIG. 4D—lateral root meristems (LRM) and an apical root meristem (ARM)). Seedlings were also germinated in pots containing washed sand, and then fertilized using 0.25×Hoagland's medium with or without phosphorus (0.25 mM), and examined after 10 days. GUS expression in the roots of these seedlings (FIG. 4F) or in the whole seedlings (FIG. 4G—not starved; FIG. 4H—starved) is shown. Phosphorus starvation symptoms were evident 8 days after sowing. Plant expression was examined by staining with x-gluc (i.e., 5-bromo-4-chloro-3-indolyl β-D-glucuronide), as described below, to evaluate GUS expression.
GUS activity was determined according to the method of Jefferson et al., EMBO J. 6:3901-3907 (1987). After staining, tissue was fixed in 1.5% formaldehyde-4% acetic acid-30% ethanol for 30 minutes, dehydrated through a graded ethanol series (50, 95, 100% for 20 minutes at each step), incubated 2 hours at 100% ethanol, and rehydrated through a graded ethanol series (95 and 50%, for 20 minutes each step). Rehydrated tissues were stored in H2O.
Pr-GUS transformants, germinated and grown in sand culture, were used to test the specificity of APase promoter induction by either inducing nutritional deficiencies other than P-limitation or by using such known chemical inducers of gene expression as salicylic acid (Ward et al., Plant Cell 3:1085-1094 (1991)) and jasmonic acids (Staswick, et al., Plant Physiol 96:130-136 (1991), Creelman et al., New Phytol. 75:479-490 (1992)) (Tables 1 and 2). Seedlings were germinated in pots containing washed sand and fertilized with modified 0.25×Hoagland's medium optionally lacking nitrogen (N), potassium (K), or iron (Fe). Nitrogen-free Hoagland's medium was prepared by substituting K2HPO4 for (NH4)2SO4, CaSO4 for Ca(NO3)2 and K2SO4 for KNO3. Potassium-free Hoagland's medium was prepared by substituting NaNO3 for KNO3. Iron deficient medium was prepared by removing Fe-EDTA from the medium composition. Aqueous solutions of salicylic acid (SA), jasmonic acid (JA), and mannose were supplied to 14-day-old seedlings by spraying until solutions ran off the seedlings; approximately 20 ml of 2.5-fold concentrated solution was added to the sand at the same time.
Both chemical inducers were applied at concentrations capable of strongly inducing a variety of plant genes. These treatments were compared to the effects of P removal (Table 1, where “P” is phosphorus, N is nitrogen, K is potassium, and Fe is iron, “+” indicates presence and “−” indicates absence, and relative expression is indicated on a scale of “−” (lowest), “+/−,” “+,” “++,” to “+++” (highest)) or the addition of mannose (Table 2, where is indicated on a scale of “−” (lowest), “+/−,” “+,” “++,” to “+++” (highest)). Mannose is known to induce P deficiency in plant cells by virtue of its ability to bind cellular phosphates as mannose 6-phosphate (Watkins, et al., Plant Physiol. 97:139-146 (1987)), thereby acting as an agent that associates with a phosphorus compound. […] Seventeen days after sowing, the experiment was terminated.

[2] = test system: acid phosphatase (APase); test: APase activity in growth medium of B. juncea plants (p-NPP substrate, 410 nm); type: in vivo, Brassica juncea; conditions: after 6 days incubation
Description: Expression and secretion studies of B. juncea began with the germination of B. juncea seeds in Petri dishes on Gamborg's B-5 (Life Technologies, Gibco BRL, Grand Island, N.Y.) agar medium. Germinated seedlings were then transferred to 20 ml vials containing one-quarter-strength Hoagland's solution (Arnon et al., Soil Sci. 50:463-483 (1940)). Plants were grown in shaker-incubators (25 rpm), at 24° C. under a 16-hour photoperiod, with 150 mE/m^2/s illumination provided by a mixture of fluorescent and incandescent lamps. After 10 days, plants were transferred into 125 ml flasks with 120 ml of 0.25×Hoagland solution containing one of the following concentrations of phosphorus: 3 mM, 1 mM, 0.25 mM or 0.01 mM (i.e., phosphorus deficiency). In the low phosphorus medium, (NH4)2SO4 was substituted for NH4H2PO4. The volume of medium in each flask was adjusted daily to 120 ml and the exudate-containing media were sampled for APase activity.
Unconcentrated media samples were subjected to chromogenic determination at 410 nm. The activity of APase in the growth medium was determined using p-nitrophenyl-1-phosphate (p-NPP, Sigma Chemical Co., St. Louis, Mo.) as substrate and 50 mM Na-acetate buffer, pH 4.6, in a water bath at 37° C. (Ascencio, J., J. Plant Nutr. 20:9-26 (1997)). The reaction was stopped after 1 hour with a 1 M Na2CO3 solution and the yellow p-nitrophenol (PNP) was measured at 410 nm in a DU 640 Spectrophotometer (Beckman Instruments, Columbia, Md.). […] Thus, expression of the exuded A. thaliana APase was de-repressed by phosphorus starvation.

Row | SMILES | relative GUS expression ([1]; 1 day after treatment) | relative GUS expression ([1]; 3 days after treatment) | relative GUS expression ([1]; 5 days after treatment) | relative GUS expression ([1]; 7 days after treatment) | APase activity in exudate-containing medium ([2]; 0.01 mM phosphorus) | APase activity in exudate-containing medium ([2]; 0.25 mM phosphorus) | APase activity in exudate-containing medium ([2]; 1 mM phosphorus) | APase activity in exudate-containing medium ([2]; 3 mM phosphorus) | expression of GUS on addition of phosphorus to the medium ([1]; phosphorus-starved plants)
1 | O=C(O)c1ccccc1O [salicylic acid] | − | + | − | +/− |  |  |  |  | 
2 | CC/C=C\C[C@H]1C(=O)CC[C@@H]1CC(=O)O [jasmonic acid] | − | − | − | − |  |  |  |  | 
3 | [P] [phosphorus] |  |  |  |  | ~0.33 A410/(ml-hour) | ~0.21 A410/(ml-hour) | ~0.09 A410/(ml-hour) | approximately 0.04 A410/(ml-hour) | diminished
